Patent US8236828B2, “Insecticidal compounds” (Syngenta Crop Protection LLC, priority 2007, dated 2012)

Assays:
Format in all cases: in vivo
[1] = system: Diabrotica balteata (Corn Root Worm); test: Diabrotica balteata larvae test on artificial diet; settings: same protocol, 200 ppm, 5 days
[2] = system: Plutella xylostella (Diamond Back Moth); test: Plutella xylostella larvae test on artificial diet; settings: same protocol, 200 ppm, 6 days
Method: (§1) This Example illustrates the pesticidal/insecticidal properties of compounds of formula (I). Tests were performed as follows:
(§2) • Cotton leaf discs were placed on agar in a 24-well microtiter plate and sprayed with test solutions at an application rate of 200 ppm. After drying, the leaf discs were infested with 5 L1 larvae. The samples were checked for mortality, feeding behaviour, and growth regulation 3 days after treatment (DAT). • The following compounds gave at least 80% control of Spodoptera littoralis: A1, A2, A3, A4, A5, A6, A10, A13, A17, A19. Heliothis virescens (Tobacco Budworm): • Eggs (0-24 h old) were placed in 24-well microtiter plate on artificial diet and treated with test solutions at an application rate of 200 ppm (concentration in well 18 ppm) by pipetting. After an incubation period of 4 days, samples were checked for egg mortality, larval mortality, and growth regulation. • The following compounds gave at least 80% control of Heliothis virescens: A1, A2, A3, A4, A5, A6, A7, A9, A10, A11, A12, A14, A17, A18, A19, A21. Plutella xylostella (Diamond Back Moth): • 24-well microtiter plate (MTP) with artificial diet was treated with test solutions at an application rate of 200 ppm (concentration in well 18 ppm) by pipetting. After drying, the MTP's were infested with L2 larvae (7-12 per well). […]

[3] = system: Spodoptera littoralis (Egyptian Cotton Leafworm); test: Spodoptera littoralis cotton leaf disc spray test; settings: same protocol, 200 ppm, 3 DAT
Method: as §1
Spodoptera littoralis (Egyptian Cotton Leafworm):
as §2

[4] = system: Heliothis virescens (Tobacco Budworm); test: Heliothis virescens egg test on artificial diet; settings: same protocol, 200 ppm, 4 days
Method: as §1, §2

Measured: damage to the test organisms

CSc1cc(C(F)(F)F)ccc1C(=O)Nc1cc(C(=O)Nc2c(C)cc(C3(C(F)(F)F)CC(c4ccc(Cl)cc4)=NO3)cc2C)ccc1C#N (centres unmarked) [A8]
little or no damage: [1] | [2] | [3] | [4]

COC(=O)c1ccc(C(=O)Nc2cc(C(=O)Nc3c(C)cc(C4(C(F)(F)F)CC(c5ccc(Cl)cc5)=NO4)cc3C)ccc2C#N)cc1 (centres unmarked) [A20]
little or no damage: [1] | [2] | [3] | [4]
